Measurements from US8710233B2 (Gruenenthal GmbH, priority 2005, dated 2014).
“And” between values parts separate entries of the source, which are not always exact repeats. Equal entries are not always repeated. Where two headings read alike, the source gives them in different places.

Key:
[1] = target: T1, vanilloid receptor (VR1) (Homo sapiens, UniProt Q8NER1); assay: FLIPR Ca2+ influx assay on CHO K1 cells transfected with the VR1 gene (pharmacological method II); assay type: cell-based; settings: for inhibition at 1 µM / inhibition in percent, Ki (human) Cap.: ne = no effect, @ 1 μM
T1 construct: expressed in transfected cells; host or cells: CHO K1 cells (ECACC), stably transfected
T1 sequence (Q8NER1 whole entry): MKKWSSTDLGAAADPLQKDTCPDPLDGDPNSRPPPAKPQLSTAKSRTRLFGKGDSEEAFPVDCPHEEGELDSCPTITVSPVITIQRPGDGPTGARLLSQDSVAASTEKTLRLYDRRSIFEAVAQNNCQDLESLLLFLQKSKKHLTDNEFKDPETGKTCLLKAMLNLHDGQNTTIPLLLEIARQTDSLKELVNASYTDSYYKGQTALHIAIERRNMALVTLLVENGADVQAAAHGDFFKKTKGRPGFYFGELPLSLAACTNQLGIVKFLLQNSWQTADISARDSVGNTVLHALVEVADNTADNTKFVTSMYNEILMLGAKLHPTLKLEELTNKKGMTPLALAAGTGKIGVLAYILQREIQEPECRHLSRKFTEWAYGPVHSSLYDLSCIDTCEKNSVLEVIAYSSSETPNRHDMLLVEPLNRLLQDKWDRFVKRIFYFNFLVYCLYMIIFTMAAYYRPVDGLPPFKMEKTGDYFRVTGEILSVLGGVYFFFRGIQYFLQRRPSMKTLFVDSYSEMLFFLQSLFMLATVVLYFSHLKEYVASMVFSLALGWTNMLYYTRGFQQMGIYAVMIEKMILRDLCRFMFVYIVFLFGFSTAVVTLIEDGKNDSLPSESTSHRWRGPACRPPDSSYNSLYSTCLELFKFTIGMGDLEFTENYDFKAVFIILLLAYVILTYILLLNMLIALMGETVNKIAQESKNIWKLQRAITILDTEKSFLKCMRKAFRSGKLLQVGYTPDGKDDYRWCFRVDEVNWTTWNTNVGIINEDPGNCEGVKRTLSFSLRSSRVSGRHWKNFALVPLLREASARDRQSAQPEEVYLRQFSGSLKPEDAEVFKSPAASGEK

[2] = target: VR1/TRPV1 receptor (Homo sapiens, UniProt Q8NER1); assay: IC50 (human) after pH stimulus; assay type: cell-based; settings: for IC50: table 4
VR1/TRPV1 receptor, sequence (Q8NER1 whole entry): as above

[3] = target: T2, vanilloid receptor 1 (VR1/TRPV1) of the rat species (Rattus norvegicus, UniProt O35433); assay: FLIPR Ca2+ influx assay on rat dorsal root ganglia cells (pharmacological method I); assay type: cell-based; settings: for inhibition in percent, Ki (rat) Cap. / inhibition at 1 µM: @ 1 μM, ne = no effect; for Ki: table 4, capsaicin
T2 construct: The spinal column is removed from decapitated rats; from tissue; host or cells: primary cells dissociated from rat dorsal root ganglia
T2 sequence (O35433 whole entry): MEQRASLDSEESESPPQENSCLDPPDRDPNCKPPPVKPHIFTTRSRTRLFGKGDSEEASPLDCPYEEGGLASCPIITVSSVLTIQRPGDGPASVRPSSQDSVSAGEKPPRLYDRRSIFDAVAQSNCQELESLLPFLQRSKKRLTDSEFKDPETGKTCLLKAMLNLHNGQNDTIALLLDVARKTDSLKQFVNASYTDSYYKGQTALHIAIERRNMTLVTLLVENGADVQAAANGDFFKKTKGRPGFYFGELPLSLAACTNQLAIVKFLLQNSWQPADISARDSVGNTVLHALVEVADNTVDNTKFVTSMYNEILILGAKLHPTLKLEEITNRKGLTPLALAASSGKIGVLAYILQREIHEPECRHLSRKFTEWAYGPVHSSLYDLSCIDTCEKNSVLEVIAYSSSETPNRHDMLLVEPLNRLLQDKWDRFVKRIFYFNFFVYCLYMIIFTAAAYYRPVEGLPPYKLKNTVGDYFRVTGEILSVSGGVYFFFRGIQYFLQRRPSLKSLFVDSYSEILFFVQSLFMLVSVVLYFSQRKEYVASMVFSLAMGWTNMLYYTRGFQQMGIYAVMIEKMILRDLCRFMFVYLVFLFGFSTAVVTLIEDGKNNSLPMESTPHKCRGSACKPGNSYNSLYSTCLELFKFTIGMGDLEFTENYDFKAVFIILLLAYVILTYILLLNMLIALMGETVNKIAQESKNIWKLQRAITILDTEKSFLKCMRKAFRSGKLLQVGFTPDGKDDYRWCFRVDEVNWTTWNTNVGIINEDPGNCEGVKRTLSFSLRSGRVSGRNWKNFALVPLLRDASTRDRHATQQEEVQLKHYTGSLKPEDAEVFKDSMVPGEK
In short: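 Primary rat dorsal root ganglion cells loaded with 2 μM Fluo-4, Ca2+ influx read on FLIPR as peak fluorescence. Triplicates, at least 3 independent experiments.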

[4] = system: capsaicin induced hypothermie; assay: Hypothermie assay in the mouse (capsaicin induced hypothermie); assay type: in vivo; settings: 0.3 mg/kg body weight po; mouse; read-out: inhibition hypothermie (n = 5)
[5] = system: formaldehyde induced nociceptive behaviour; assay: Formaldehyde test in mice, second (late) phase; assay type: in vivo, mouse; settings: 0.3 mg/kg body weight po; mouse; read-out: inhibition formaldehyde test (n = 10)
[6] = target: T1, vanilloid receptor (VR1); assay: FLIPR Ca2+ influx assay on CHO K1 cells transfected with the VR1 gene (pharmacological method II); assay type: cell-based; settings: table 4; capsaicin; read-out: Ki (human) Cap.
[7] = system: cold allodynia after chronic constriction injury; assay: Neuropathic pain in mice, Bennet model (chronic constriction injury, cold allodynia); assay type: in vivo; settings: 0.1 mg/kg body weight po; mouse
Description: VI. Neuropathic Pain in Mice
The efficacy of compounds of general formula I in the treatment of neuropathic pain is investigated by using the Bennet modell (chronic constriction injury; Bennett and Xie, 1988, Pain 33: 87-107.
NMRI mice (weight 16 to 18 g) under ketavet-rompun anaesthesia are supplied with three loose ligatures of the right nervus ischiaticus. The animals develop an oversensitivity to cold at the position of the pad that is innervated by the injured nerve which—after a recovery period of one week—is quantified over a period of three weeks by using a metal plate that is cooled to 4° C. (cold allodynia). The animals are observed for a period of 2 minutes on this plate and the number of brisk withdrawal reactions of the injured nerve is counted. […] The group size is n=10, the stastical significance of efficacy against allodynia (*=p<0.05) is determined by analysis of variance with repeated measurements and post hoc analysis with Bonferroni adjustment.

[8] = CHO-K1, read-out: inhibition in percent, Ki (human) Cap.
[9] = read-out: inhibition in percent, IC50 (human) after pH stimulus
[10] = @ 10 μM, read-out: inhibition in percent, IC50 (human) after pH stimulus
[11] = read-out: inhibition in percent, Ki (rat) Cap.

CC1CCN(c2nc(C(F)(F)F)ccc2CNC(=O)C(C)c2ccc(NS(=O)(=O)C(F)(F)F)c(F)c2)CC1 (stereo not shown) [Compound 312]
inhibition at 1 µM [1, 8]: 7%

CC(C(=O)NCc1ccc(C(F)(F)F)nc1N1CCS(=O)(=O)CC1)c1ccc(NS(C)(=O)=O)c(F)c1 (stereo not shown) [Example 314, N-[2-(1,1-dioxo-1l6-thiomorpholin-4-yl)-6-trifluoromethyl-pyridin-3-ylmethyl]-2-(3-fluoro-4-methylsulfonamido-phenyl)-propionamide]
inhibition at 5 µM [2, 9]: 14%
inhibition at 10 µM [2, 10]: 31%
inhibition at 5 µM [1, 8]: 46%

CC(C(=O)NCc1ccc(C(F)(F)F)nc1OC1CCNCC1)c1ccc(NS(C)(=O)=O)c(F)c1 (stereo not shown) [Example 344, 2-(3-fluoro-4-methylsulfonamido-phenyl)-N-[2-(piperidin-4-yloxy)-6-trifluoromethyl-pyridin-3-ylmethyl]-propionamide]
inhibition in percent, IC50 (human) after pH stimulus ([2]; @ 1 μM, ne = no effect): ne @ 1 μM
inhibition at 5 µM [1, 8]: 34%

CC(C(=O)NCc1ccc(C(F)(F)F)nc1N1CCC(N2CCCC2)CC1)c1ccc(NS(C)(=O)=O)c(F)c1 (stereo not shown) [Example 165, 2-(3-fluoro-4-methylsulfonamido-phenyl)-N-(4-pyrrolidin-1-yl-6′-trifluoromethyl-3,4,5,6-tetrahydro-2H-[1,2′]bipyridinyl-3′-ylmethyl)-propionamide]
inhibition at 25 µM ([3]; @ 25 μM, read-out: inhibition in percent, Ki (rat) Cap.): 82%
inhibition at 10 µM [2, 10]: 28%
inhibition at 25 µM [2, 9]: 40%
inhibition in vivo at 0.3 mg/kg [4]: 41%
inhibition in vivo at 0.3 mg/kg [5]: 29%
inhibition at 25 µM ([1]; CHO-K1, @ 25 μM, read-out: inhibition in percent, Ki (human) Cap.): 76%

CC(C(=O)NCc1ccc(C(F)(F)F)cc1N)c1ccc(NS(C)(=O)=O)c(F)c1 (stereo not shown) [Example 61, N-(2-amino-4-(trifluoromethyl)benzyl)-2-(3-fluoro-4-(methylsulfonamido)-phenyl)propanamide]
inhibition in percent, Ki (rat) Cap. [3]: ne @ 1 μM
inhibition at 10 µM [2, 10]: 47%
inhibition in percent, Ki (human) Cap. [1]: ne @ 1 μM

CC(C(=O)NCc1ccc(C(F)(F)F)cc1[N+](=O)[O-])c1ccc(NS(C)(=O)=O)c(F)c1 (stereo not shown) [Example 62, 2-(3-fluoro-4-(methylsulfonamido)phenyl)-N-(2-nitro-4-(trifluoromethyl)-benzyl)propanamide]
inhibition in percent, Ki (rat) Cap. [3]: ne @ 1 μM
inhibition in percent, IC50 (human) after pH stimulus ([2]; @ 1 μM, ne = no effect): ne @ 1 μM
inhibition in percent, Ki (human) Cap. [1]: ne @ 1 μM

CC(C(=O)NCc1ccc(C(F)(F)F)nc1OC1CCNCC1)c1ccc(NS(C)(=O)=O)c(F)c1 (stereo not shown) [Compound 344]
inhibition at 1 µM [1, 8]: 3%

CC(C(=O)NCc1ccc(C(F)(F)F)nc1N1CCC(N2CCCCC2)CC1)c1ccc(NS(C)(=O)=O)c(F)c1 (stereo not shown) [Compound 164]
inhibition at 1 µM [3, 11]: 1.5%
inhibition at 1 µM [1, 8]: 20%

CC(C(=O)NCc1ccc(C(F)(F)F)nc1N1CCC(O)CC1)c1ccc(NS(C)(=O)=O)c(F)c1 (stereo not shown) [Example 269, 2-(3-fluoro-4-methylsulfonamido-phenyl)-N-(4-hydroxy-6′-trifluoromethyl-3,4,5,6-tetrahydro-2H-[1,2′]bipyridinyl-3′-ylmethyl)-propionamide]
inhibition in percent, Ki (rat) Cap. [3]: ne @ 1 μM
inhibition in percent, IC50 (human) after pH stimulus ([2]; @ 1 μM, ne = no effect): ne @ 1 μM
inhibition in percent, Ki (human) Cap. [1]: ne @ 1 μM

CC(C(=O)NCc1ncc(C(F)(F)F)cc1N1CCCC1)c1ccc(NS(C)(=O)=O)c(F)c1 (stereo not shown) [Example 78, 2-(3-Fluor-4-(methylsulfonamido)phenyl)-N-((3-(pyrrolidin-1-yl)-5-(trifluoromethyl)pyridin-2-yl)methyl)propanamide]
inhibition in percent, Ki (rat) Cap. [3]: 19% @ 1 μM
inhibition in percent, IC50 (human) after pH stimulus ([2]; @ 10 μM): 36% @ 10 μM
inhibition in percent, Ki (human) Cap. [1]: 15% @ 1 μM

CC(C(=O)NCc1ccc(C(F)(F)F)nc1N1CCN(c2ccncc2)CC1)c1ccc(NS(C)(=O)=O)c(F)c1 (stereo not shown) [Compound 176]
inhibition at 1 µM [3, 11]: 8%
inhibition at 1 µM [1, 8]: 7.2%

CC(C(=O)NCc1ccc(C(F)(F)F)nc1-c1ccc2[nH]ccc2c1)c1ccc(NS(C)(=O)=O)c(F)c1 (stereo not shown) [Example 276, 2-(3-fluoro-4-methylsulfonamido-phenyl)-N-[2-(1H-indol-5-yl)-6-trifluoromethyl-pyridin-3-ylmethyl]-propionamide]
inhibition at 0.1 µM ([2]; @ 0.1 μM, read-out: inhibition in percent, IC50 (human) after pH stimulus): 11%
inhibition at 1 µM ([2]; @ 1 μM, ne = no effect, read-out: inhibition in percent, IC50 (human) after pH stimulus): 11%
inhibition at 5 µM [2, 9]: 43%
inhibition at 5 µM [1, 8]: 78%

CCCCCCOc1nc(C(F)(F)F)ccc1CNC(=O)C(C)c1ccc(NS(C)(=O)=O)c(F)c1 (stereo not shown) [Example 91, 2-(3-fluoro-4-methylsulfonamido-phenyl)-N-(2-hexyloxy-6-trifluoromethyl-pyridin-3-ylmethyl)-propionamide]
Ki ([3]; Ki (rat) Cap.): 0.5 nM
Ki [6]: 0.5 nM
IC50 [2]: 29.9 nM
inhibition Bennet model (n = 10) [7]: 0.1 po 30%

CC(C(=O)NCc1ccc(C(F)(F)F)nc1Nc1ccc(F)cc1)c1ccc(NS(C)(=O)=O)c(F)c1 (stereo not shown) [Example 112, 2-(3-fluoro-4-methylsulfonamido-phenyl)-N-[2-(4-fluoro-phenylamino)-6-trifluoromethyl-pyridin-3-ylmethyl]-propionamide]
Ki ([3]; read-out: Ki (rat) Cap.): 31.8 nM and 236 nM
Ki [6]: 39.2 nM
inhibition in percent, IC50 (human) after pH stimulus ([2]; @ 10 μM): 64% @ 10 μM
inhibition at 25 µM [2, 9]: 67%
inhibition at 1 µM [1, 8]: 15%

CC(C(=O)NCc1ccc(C(F)(F)F)nc1N1CCS(=O)(=O)CC1)c1ccc(NS(C)(=O)=O)c(F)c1 (stereo not shown) [Compound 314]
inhibition at 1 µM [1, 8]: 12%

CC(C(=O)NCc1ccc(C(F)(F)F)nc1OCC1CCNCC1)c1ccc(NS(C)(=O)=O)c(F)c1 (stereo not shown) [Example 343, 2-(3-fluoro-4-methylsulfonamido-phenyl)-N-[2-(piperidin-4-ylmethoxy)-6-trifluoromethyl-pyridin-3-ylmethyl]-propionamide]
inhibition in percent, IC50 (human) after pH stimulus ([2]; @ 1 μM, ne = no effect): ne @ 1 μM
inhibition at 5 µM [1, 8]: 55%

CC(C(=O)NCc1c(CO)cc(C(C)(C)C)nc1OCc1ccccc1)c1ccc(NS(C)(=O)=O)c(F)c1 (stereo not shown) [Compound 223]
inhibition at 0.1 µM ([1]; CHO-K1, @ 0.1 μM, read-out: inhibition in percent, Ki (human) Cap.): 4%

CC1CCN(c2nc(C(F)(F)F)ccc2CNC(=O)C(C)c2ccc(NS(=O)(=O)C(F)(F)F)c(F)c2)CC1 (stereo not shown) [Example 312, 2-(3-fluoro-4-trifluoromethylsulfonamido-phenyl)-N-(4-methyl-6′-trifluoromethyl-3,4,5,6-tetrahydro-2H-[1,2′]bipyridinyl-3′-ylmethyl)-propionamide]
inhibition in percent, IC50 (human) after pH stimulus ([2]; @ 1 μM, ne = no effect): ne @ 1 μM
inhibition at 5 µM [1, 8]: 68%

CC(C(=O)NCc1ccc(C(F)(F)F)cc1N1CCCCCC1)c1ccc(NS(C)(=O)=O)c(F)c1 (stereo not shown) [Example 174, N-(2-azepan-1-yl-4-trifluoromethyl-benzyl)-2-(3-fluoro-4-methylsulfonamido-phenyl)-propionamide]
Ki ([3]; read-out: Ki (rat) Cap.): 1.4 nM
Ki [6]: 1.6 nM
IC50 [2]: 64.5 nM
inhibition in vivo at 0.3 mg/kg [4]: 39%
inhibition in vivo at 0.3 mg/kg [5]: 5%

CC(C(=O)NCc1ccc(C(F)(F)F)nc1OCC1CCNCC1)c1ccc(NS(C)(=O)=O)c(F)c1 (stereo not shown) [Compound 343]
inhibition at 1 µM [1, 8]: 8%

CC(C(=S)NCc1ccc(C(F)(F)F)nc1N1CCCC1)c1ccc(NS(C)(=O)=O)c(F)c1 (stereo not shown) [Example 129, 2-(3-fluoro-4-methylsulfonamido-phenyl)-N-(2-pyrrolidin-1-yl-6-trifluoromethyl-pyridin-3-ylmethyl)-thiopropionamide]
Ki ([3]; read-out: Ki (rat) Cap.): 1.6 nM
Ki [6]: 1.8 nM
IC50 [2]: 77.2 nM
inhibition in vivo at 0.3 mg/kg [4]: 10%
inhibition in vivo at 0.3 mg/kg [5]: 5%

CC(C(=O)NCc1c(CO)cc(C(C)(C)C)nc1OCc1ccccc1)c1ccc(NS(C)(=O)=O)c(F)c1 (stereo not shown) [Example 223, N-(2-benzyloxy-6-tert-butyl-4-hydroxymethyl-pyridin-3-ylmethyl)-2-(3-fluoro-4-methylsulfonamido-phenyl)-propionamide]
inhibition at 1 µM [3, 11]: 53%
inhibition in percent, IC50 (human) after pH stimulus ([2]; @ 1 μM, ne = no effect): ne @ 1 μM
inhibition at 1 µM [1, 8]: 38%

CCCCOC1CCN(c2nc(C(F)(F)F)ccc2CNC(=O)C(C)c2ccc(NS(C)(=O)=O)c(F)c2)CC1 (stereo not shown) [Example 160, N-(4-butoxy-6′-trifluoromethyl-3,4,5,6-tetrahydro-2H-[1,2′]bipyridinyl-3′-ylmethyl)-2-(3-fluoro-4-methylsulfonamido-phenyl)-propionamide]
Ki ([3]; read-out: Ki (rat) Cap.): 3 nM
Ki [6]: 3.5 nM
IC50 [2]: 28.2 nM
inhibition in vivo at 0.3 mg/kg [4]: 28%
inhibition in vivo at 0.3 mg/kg [5]: 10%
